Earlier results in patent US5519028A, “Antiviral preparations” (priority 1992, dated 1996).

Test system: viruses of vaccine
Conditions: intracutaneously 200-600 μg or 2.5-500 mg/day; cited from earlier work

Compound: CCc1ccc2c3[nH]c4ccccc4c3cc[n+]2c1 [flavopereirine]
- appearance and development of vital papules: prevents the appearance and development of vital papules
